Assay results published in patent US6479054B1, “Process for obtaining genistin-rich isoflavone composition” (Showa Sangyo Co., Ltd., priority 1998, dated 2002).

Assay: Solubility of genistin in isoflavone containing eluate as a function of pH (FIG. 1)
Assay type: physicochemical
Text: Concentrations of isoflavones in a supernatant are shown, making each isoflavone concentration at the time of elution 100.).

For `O=c1c(-c2ccc(O)cc2)coc2cc(O[C@@H]3O[C@H](CO)[C@@H](O)[C@H](O)[C@H]3O)cc(O)c12` [genistin], the “solubility of genistin in an isoflavone containing eluate” value (pHs of not less than 10) was “extremely high” and the “solubility of genistin in an isoflavone containing eluate” value (pHs of not more than 9.5) was “extremely low”.
